± gives the expanded uncertainty stated by the source.
Assay: xn = mol fraction of the nth substance listed
Conditions: 100 kPa, Liquid; for mass density: Vibrating tube method; for viscosity: Concentric cylinders viscometry

C[n+]1ccn(CCO)c1.F[B-](F)(F)F [1-(2-hydroxyethyl)-3-methylimidazolium tetrafluoroborate] + CCCCn1cc[n+](C)c1.F[B-](F)(F)F
Conditions	mass density [kg/m3]	viscosity [mPa·s]
318.15 K, x1 = 0.101	1199.8 ± 1.1	–
318.15 K, x1 = 0.201	1213.5 ± 1.1	–
318.15 K, x1 = 0.3002	1227.8 ± 1.1	–
318.15 K, x1 = 0.4006	1243.6 ± 1.1	–
318.15 K, x1 = 0.5009	1258.1 ± 1.1	–
318.15 K, x1 = 0.5991	1274.1 ± 1.1	–
318.15 K, x1 = 0.7001	1293.8 ± 1.1	–
318.15 K, x1 = 0.8	1307.8 ± 1.1	–
318.15 K, x1 = 0.8995	1325.7 ± 1.1	–
318.15 K, x1 = 1	1343.7 ± 1.1	–
323.15 K, x1 = 0.1003	–	35.84 ± 2.9
323.15 K, x1 = 0.101	1196.3 ± 1.1	–
323.15 K, x1 = 0.2001	–	35.27 ± 2.8
323.15 K, x1 = 0.201	1209.9 ± 1.1	–
323.15 K, x1 = 0.2997	–	35.51 ± 2.9
323.15 K, x1 = 0.3002	1224.2 ± 1.1	–
323.15 K, x1 = 0.3999	–	35.68 ± 2.9
323.15 K, x1 = 0.4006	1240 ± 1.1	–
323.15 K, x1 = 0.4996	–	35.08 ± 2.8
323.15 K, x1 = 0.5009	1254.5 ± 1.1	–
323.15 K, x1 = 0.5991	1270.4 ± 1.1	35.69 ± 2.9
323.15 K, x1 = 0.6997	–	35.78 ± 2.9
323.15 K, x1 = 0.7001	1290.3 ± 1.1	–
323.15 K, x1 = 0.7999	–	36.02 ± 2.9
323.15 K, x1 = 0.8	1304.1 ± 1.1	–
323.15 K, x1 = 0.8995	1322 ± 1.1	–
323.15 K, x1 = 0.8998	–	36.55 ± 2.9
323.15 K, x1 = 1	1340.1 ± 1.1	36.5 ± 2.9
328.15 K, x1 = 0.1003	–	29.96 ± 2.4
328.15 K, x1 = 0.101	1192.8 ± 1.1	–
328.15 K, x1 = 0.2001	–	29.52 ± 2.4
328.15 K, x1 = 0.201	1206.5 ± 1.1	–
328.15 K, x1 = 0.2997	–	29.75 ± 2.4
328.15 K, x1 = 0.3002	1220.7 ± 1.1	–
328.15 K, x1 = 0.3999	–	29.9 ± 2.4
328.15 K, x1 = 0.4006	1236.4 ± 1.1	–
328.15 K, x1 = 0.4996	–	29.42 ± 2.4
328.15 K, x1 = 0.5009	1250.9 ± 1.1	–
328.15 K, x1 = 0.5991	1266.8 ± 1.1	29.91 ± 2.4
328.15 K, x1 = 0.6997	–	29.95 ± 2.4
328.15 K, x1 = 0.7001	1286.7 ± 1.1	–
328.15 K, x1 = 0.7999	–	30.13 ± 2.4
328.15 K, x1 = 0.8	1300.5 ± 1.1	–
328.15 K, x1 = 0.8995	1318.3 ± 1.1	–
328.15 K, x1 = 0.8998	–	30.58 ± 2.4
328.15 K, x1 = 1	1336.4 ± 1.1	30.46 ± 2.4
333.15 K, x1 = 0.1003	–	25.35 ± 2
333.15 K, x1 = 0.101	1189.3 ± 1.1	–
333.15 K, x1 = 0.2001	–	25.03 ± 2
333.15 K, x1 = 0.201	1203 ± 1.1	–
333.15 K, x1 = 0.2997	–	25.2 ± 2
333.15 K, x1 = 0.3002	1217.2 ± 1.1	–
333.15 K, x1 = 0.3999	–	25.27 ± 2
333.15 K, x1 = 0.4006	1232.9 ± 1.1	–
333.15 K, x1 = 0.4996	–	24.96 ± 2
333.15 K, x1 = 0.5009	1247.6 ± 1.1	–
333.15 K, x1 = 0.5991	1263.2 ± 1.1	25.36 ± 2
333.15 K, x1 = 0.6997	–	25.41 ± 2
333.15 K, x1 = 0.7001	1283.1 ± 1.1	–
333.15 K, x1 = 0.7999	–	25.55 ± 2.1
333.15 K, x1 = 0.8	1296.8 ± 1.1	–
333.15 K, x1 = 0.8995	1314.7 ± 1.1	–
333.15 K, x1 = 0.8998	–	25.83 ± 2.1
333.15 K, x1 = 1	1332.8 ± 1.1	25.73 ± 2.1
338.15 K, x1 = 0.1003	–	21.68 ± 1.7
338.15 K, x1 = 0.101	1185.9 ± 1.1	–
338.15 K, x1 = 0.2001	–	21.42 ± 1.7
338.15 K, x1 = 0.201	1199.5 ± 1.1	–
338.15 K, x1 = 0.2997	–	21.57 ± 1.7
338.15 K, x1 = 0.3002	1213.7 ± 1.1	–
338.15 K, x1 = 0.3999	–	21.63 ± 1.7
338.15 K, x1 = 0.4006	1229.4 ± 1.1	–
338.15 K, x1 = 0.4996	–	21.39 ± 1.7
338.15 K, x1 = 0.5009	1244.1 ± 1.1	–
338.15 K, x1 = 0.5991	1259.7 ± 1.1	21.68 ± 1.7
338.15 K, x1 = 0.6997	–	21.72 ± 1.7
338.15 K, x1 = 0.7001	1279.5 ± 1.1	–
338.15 K, x1 = 0.7999	–	21.81 ± 1.8
338.15 K, x1 = 0.8	1293.2 ± 1.1	–
338.15 K, x1 = 0.8995	1311.1 ± 1.1	–
338.15 K, x1 = 0.8998	–	22.08 ± 1.8
338.15 K, x1 = 1	1329.2 ± 1.1	21.98 ± 1.8
343.15 K, x1 = 0.1003	–	18.71 ± 1.5
343.15 K, x1 = 0.101	1182.4 ± 1.1	–
343.15 K, x1 = 0.2001	–	18.51 ± 1.5
343.15 K, x1 = 0.201	1196 ± 1.1	–
343.15 K, x1 = 0.2997	–	18.64 ± 1.5
343.15 K, x1 = 0.3002	1210.3 ± 1.1	–
343.15 K, x1 = 0.3999	–	18.68 ± 1.5
343.15 K, x1 = 0.4006	1225.9 ± 1.1	–
343.15 K, x1 = 0.4996	–	18.5 ± 1.5
343.15 K, x1 = 0.5009	1240.6 ± 1.1	–
343.15 K, x1 = 0.5991	1256.2 ± 1.1	18.74 ± 1.5
343.15 K, x1 = 0.6997	–	18.78 ± 1.5
343.15 K, x1 = 0.7001	1276 ± 1.1	–
343.15 K, x1 = 0.7999	–	18.84 ± 1.5
343.15 K, x1 = 0.8	1289.7 ± 1.1	–
343.15 K, x1 = 0.8995	1307.5 ± 1.1	–
343.15 K, x1 = 0.8998	–	19.06 ± 1.5
343.15 K, x1 = 1	1325.5 ± 1.1	18.95 ± 1.5
